Source: US8906884B2, “Method of treating graft-rejection using dextran sulfate” (TX Medic AB, priority 2002, dated 2014)
Read-outs that look alike come from different tables or passages of the source.

Tests used:
[1] = system: porcine islets perfused with human blood
Description: (§1) This protocol is basically performed as previously described with some modifications. In general words, loops made of PVC (diameter 6.3 mm, length 390 mm), whose inner surface was furnished with immobilized heparin, were used. The tubing was held together with a specially designed heparinized connector. A circular loop was formed when the ends of the connector were tightly pushed into the lumen of the tubing ends. A rocking apparatus, placed in a 37° C. incubator, was used to generate blood flow inside the loops. The loops were rocked at a setting that prevented the blood from coming in contact with the connectors.
(§2) Seven 60-min islet experiments were performed, using API isolated from four different pigs. […] For each experiment, one loop containing fresh human blood and saline without API was included as a control. […] Concurrently, pre-incubation of human blood with 1 mg/ml of LMW-dextran, which was not sulfated, was tested in five experiments. In each experiment, 7 ml of fresh human blood from the same donor was added to each loop. […] Thereafter, the loops were opened, and 100 μl of saline with or without 5 μl of API (approximately 5,000 IEQ) was added to the loops and followed by another 60-min incubation on the rocking device at 37° C. Blood glucose levels were measured with a glucometer (Glucometer Elite; Bayer Diagnostics, Leverkusen, Germany) before the perfusion.
(§3) Islets were sectioned and subsequently stained with horseradish peroxidase (HRP) conjugated mouse anti-human CD41a (R&D Systems, Abigdon, UK) and anti-CD11b^+ (Clone 2LPM 19c, DAKO, Carpinteria, Calif., USA). In the in vivo study, the API-containing mouse livers were retrieved 10 days after transplantation and snap-frozen in isopentane. The samples were sectioned and stained with guinea pig anti-insulin (DAKA, Carpinteria, Calif., USA) and rat anti-mouse CD11b^+ (Serotec Ltd. Scandinavia, Oslo, Norway).

[2] = system: clot formation induced by API in human blood
Description: Blood was drawn from four healthy volunteers into Vacutainer™ tubes containing citrate. Whole blood (980 μl) was incubated with 2 μl of API at 37° C. in polypropylene sample cups in a ReoRox™ rheometer (Global Haemostasis International, Gothenburg, Sweden). […] Every 6 s, the cup was set into free torsional oscillation around its vertical axis, and the damping and frequency of the oscillation was registered. Clotting time was identified as the point of maximal damping.

[3] = system: IBMIR triggered by API in fresh human blood
Description: as §1, §2
After every perfusion, the loop contents were filtered through 70 μm-diameter filters (Filcons, Cuptype; DAKO, Denmark). Both macroscopic blood clots and tissue recovered on the filters were snap-frozen in isopentane for immunohistochemical staining. The remaining filtered blood was collected in 4.1 mM EDTA (final concentration) and used for hematological analysis (platelets, lymphocytes, monocytes, and granulocytes) and assays of coagulation activation (thrombin-antithrombin [TAT], factor XIa-antithrombin complexes [FXIa-AT], and factor XIIa-antithrombin complexes [FXIIa-AT]), fibrinolysis activation (plasmin-alpha 2 antiplasmin complexes [PAP]), complement activation (C3a and sC5b-9), and C1 esterase inhibitor activation (factor XIa-C1 esterase inhibitor [FXIa-C1 INH], factor XIIa-C1 esterase inhibitor [FXIIa-C1 INH]). Samples taken at 0, 15, and 30 min were also analyzed. In 0-min samples, the blood was not added to the tubing loop but was instead transferred immediately to the EDTA-containing tubes. The blood samples were centrifuged at 4° C. at 3290×g for 20 min, and the plasma was collected and stored at −70° C. until analyzed.
Platelet counts and differential leukocyte counts were analyzed on a Coulter ACT-diff analyzer (Beckman Coulter, Fla., USA) using EDTA-treated blood. TAT and PAP were quantified using commercially available enzyme immunoassays (EIA) kits (Enzygnost TAT, Behringswerke, Marburg, Germany; Imuclone® PAP, American Diagnostica Inc., Greenwich, USA). FXIa-AT, FXIIa-AT, FXIa-C1 INH, and FXIIa-C1 INH were analyzed according to the method of Sanchez et al.. C3a was analyzed as previously described by Nilsson Ekdahl et al., and sC5b-9 was analyzed using a modification of the EIA described by Mollnes et al..

[4] = system: porcine islets transplanted into diabetic athymic mice
Description: After being cultured for 4 days, 5 μl of API (˜5000 IEQs) from five isolations were transplanted into the liver via the portal vein of 11 male inbred diabetic athymic mice, which were anesthetized during surgery with isoflurene. […] Six (untreated) mice were injected with an equivalent volume of saline in the same manner.
as §3

[5] = Table 4 comparison, 60 min API perfusion, 1 mg/ml, n = 5
[6] = after 60 min perfusion, API with 0.01 mg/ml, n = 7
[7] = after 60 min perfusion, API with 0.1 mg/ml, n = 7
[8] = after 60 min perfusion, API with 1 mg/ml, n = 7

“Low molecular weight dextran sulfate [LMW-DS]” was tested, and the “Number of infiltrating CD11b+ cells” value ([1]; 1 mg/ml, 60 min, FIG. 5, in words) was “decreased considerably”, the “Clot formation around islets” value ([1]; 1 mg/ml, 60 min, in words) was “complete inhibition” and the “Layer of platelets adhering to the islets” value ([1]; FIG. 7, in words) was “much thinner layer”. The “Clot formation / clotting time versus no additives” value ([2]; 0.01 and 0.1 mg/ml, in words) was “totally abrogated”, the Clotting time ([2]; experiment 1, 0.01 mg/ml) was greater than 60 min and the Clotting time ([2]; experiment 1, 0.1 mg/ml) was greater than 60 min. The Clotting time ([2]; experiment 2, 0.01 mg/ml) was greater than 60 min, the Clotting time ([2]; experiment 2, 0.1 mg/ml) was greater than 60 min and the Clotting time ([2]; experiment 3, 0.01 mg/ml) was greater than 60 min. For the same substance, the Clotting time ([2]; experiment 3, 0.1 mg/ml) was greater than 60 min, the Clotting time ([2]; experiment 4, 0.01 mg/ml) was greater than 60 min and the Clotting time ([2]; experiment 4, 0.1 mg/ml) was greater than 60 min. For the same substance, the “Generation of C3a” value ([3]; 0.01 mg/ml, FIG. 1, in words) was “significantly reduces”, the “Coagulation activation products TAT, FXIa-AT and FXIIa-AT” value ([3]; 0.01 mg/ml, in words) was “suppressed” and the PAP ([3]; 0.01 mg/ml, in words) was “significantly suppressed”. For the same substance, the “Generation of C3a and membrane attack complex sC5b-9” value ([3]; 0.1 mg/ml and 1 mg/ml, FIGS. 1 and 2, in words) was “totally inhibits”, the “C3a” value [3, 5] was 171.5 ± 72.4 ng/mL and the “FXIa-AT” value [3, 5] was 1.56 ± 0.82 µmol/L. The “Granulocytes (×10^9/l)” value [3, 5] was 3.23 ± 0.21 ×10^9/l, the “Lymphocytes (×10^9/l)” value [3, 5] was 1.94 ± 0.12 ×10^9/l and the “Monocytes (×10^9/l)” value [3, 5] was 0.38 ± 0.10 ×10^9/l. The “Platelets (×10^9/l)” value [3, 5] was 181.1 ± 16.3 ×10^9/l, the “TAT” value [3, 5] was 12.8 ± 4.9 µg/mL and the “sC5b-9 (AU/ml)” value [3, 5] was 41.6 ± 11.5 AU/ml. For the same substance, the “C3a” value [3, 6] was 630.6 ± 103.4 ng/mL, the “FXIIa-AT” value [3, 6] was 0.08 ± 0.02 µmol/L and the “FXIIa-C1 inh” value [3, 6] was 0.10 ± 0.03 µmol/mL. For the same substance, the “FXIa-AT” value [3, 6] was 0.13 ± 0.01 µmol/L, the “Granulocytes (×10^9/l)” value [3, 6] was 2.20 ± 0.40 ×10^9/l and the “Lymphocytes (×10^9/l)” value [3, 6] was 1.90 ± 0.11 ×10^9/l. For the same substance, the “Monocytes (×10^9/l)” value [3, 6] was 0.48 ± 0.10 ×10^9/l, the “PAP” value [3, 6] was 398.2 ± 60.7 ng/mL and the “Platelets (×10^9/l)” value [3, 6] was 108.2 ± 12.9 ×10^9/l. For the same substance, the “TAT” value [3, 6] was 645.3 ± 177.4 µg/mL, the “sC5b-9 (AU/ml)” value [3, 6] was 151.4 ± 27.9 AU/ml and the “C3a” value [3, 7] was 191.7 ± 36.6 ng/mL. For the same substance, the “FXIa-AT” value [3, 7] was 0.08 ± 0.01 µmol/L, the “Granulocytes (×10^9/l)” value [3, 7] was 2.80 ± 0.50 ×10^9/l and the “Lymphocytes (×10^9/l)” value [3, 7] was 1.91 ± 0.12 ×10^9/l. The “Monocytes (×10^9/l)” value [3, 7] was 0.40 ± 0.07 ×10^9/l, the “Platelets (×10^9/l)” value [3, 7] was 146.1 ± 8.1 ×10^9/l and the “TAT” value [3, 7] was 61.0 ± 8.6 µg/mL. The “sC5b-9 (AU/ml)” value [3, 7] was 61.9 ± 6.5 AU/ml, the “C3a” value [3, 8] was 215.6 ± 52.2 ng/mL and the “FXIa-AT” value [3, 8] was 1.17 ± 0.41 µmol/L. For the same substance, the “Granulocytes (×10^9/l)” value [3, 8] was 2.92 ± 0.37 ×10^9/l, the “Lymphocytes (×10^9/l)” value [3, 8] was 1.89 ± 0.10 ×10^9/l and the “Monocytes (×10^9/l)” value [3, 8] was 0.31 ± 0.05 ×10^9/l. The “Platelets (×10^9/l)” value [3, 8] was 162.3 ± 8.9 ×10^9/l, the “TAT” value [3, 8] was 15.0 ± 5.6 µg/mL and the “sC5b-9 (AU/ml)” value [3, 8] was 53.9 ± 7.1 AU/ml. For the same substance, the “Coagulation and complement activation” value ([3]; dose-dependent, in words) was “reduced”, the Blood cell consumption ([3]; in words) was “inhibited” and the Macroscopic clotting ([3]; in words) was “prevented”. For the same substance, the “FXIIa-C1 INH” value ([3]; presence or absence of LMW-DS, in words) was “did not change”, the “Frequency of clot formation and intensity of leukocyte infiltration versus untreated recipients” value ([4]; p=0.034, in words) was “significantly lower” and the “Islets entrapped in clots” value ([4]; treated mice, FIG. 9, in words) was “only a few islets”. For the same substance, the “Infiltrating CD11b+ (MAC-1+) cells” value ([4]; treated mice, FIG. 11, in words) was “markedly fewer”.
